Values belong to the compound of their own block, whether it stands above or below them. Residues, ends and D or L forms follow the SMILES beside them. *: point of attachment. Cbz = O=C(OCc1ccccc1)*
Tests used:
[1] = system: JAK1 phosphorylation in 293T cells; test: JAK1 phosphorylation in 293T cells co-expressing JAK1 and CIS; format: cell-based, human; conditions: pre-incubation of 293T cells, 10 μM for 4 h
Experimental: (a) Isothermal calorimetry (ITC) was used to measure the affinity of hCIS-SH2-BC binding to phosphopeptides corresponding to tyrosines within the JAK1/3 kinase domain activation loops and IL-2Rβ cytoplasmic domains. Tabular view of the results, showing mean±S.D. from two independent experiments. N.D.=Not detectable, p=phosphorylated. […] In some instances, cells were treated with the proteasome inhibitor, MG132. […] Protein expression levels are shown by anti-FLAG blots of whole cell lysates (lower panels). […] Protein levels are shown in the lower panels by anti-FLAG blot of cell lysates. (e) Using a cell-free system, FLAG-JAK1 was incubated with (+) and without (−) the CIS-E3 ligase complex (CIS-SH2-BC with Cullin5 and Rbx2), together with ubiquitin, E1 and E2 enzymes at 37° C. for the times indicated. JAK1 ubiquitination was visualised by Western blotting with antibodies to […]. […] Data were normalised to no-CIS controls. […] See also FIG. 9.
Lysates were clarified by centrifugation at 16,060×g for 15 min at 4° C. Protein concentrations were determined by the BCA method (Pierce, Rockford). […] In some instances, cells were pre-treated with 10 μM MG132 for 4 h to block proteasomal degradation. 48 h post-transfection cells were lysed in KALB buffer (Nicholson et al., 1995). FLAG proteins were immunoprecipitated using M2-beads (Sigma) and proteins eluted in SDS sample buffer. […]

wild-type NK cells = test: JAK1 phosphorylation in IL-15 stimulated wild-type NK cells; format: cell-based, mouse; conditions: IL-15 50 ng/ml
Experimental: (a) Cultured NK cells from wild-type and Cish^−/− mice were lysed, mRNA purified and analysed by RNAseq. Mean RPKM values for duplicate samples (left panel). JAK1 mRNA levels were analysed by Q-PCR (right panel). Mean±S.D., n=3. (b) 4-12% Coomassie-stained SDS-PAGE gel showing purified hCIS-SH2-BC complex, elongin B and elongin C. (c) Isothermal calorimetry (ITC) was used to measure the affinity of hCIS-SH2-BC binding to phosphopeptides corresponding to tyrosines within the JAK1/3 kinase domain activation loops and IL-2Rβ and γ cytoplasmic domains. […] were titrated into a 30 μM solution of the GST-CIS-SH2-BC ternary complex. ITC titration curves and tabular view of some results (inset) showing mean±S.D. from two independent experiments. N.D.=Not detectable, p=phosphorylated. The titration curves all fitted well to a single-site model. (d) Cultured wild-type NK cells were washed and starved of IL-15 for 4 h, with and without addition of the proteasomal inhibitor, MG132. Cells were then stimulated with 50 ng ml^−1 IL-15 for the indicated times, prior to cell lysis and Western blotting with antibodies to the indicated proteins. […]
Lysates were clarified by centrifugation at 16,060×g for 15 min at 4° C. Protein concentrations were determined by the BCA method (Pierce, Rockford). […]

primary human NK cells = test: Immunoblot of IL-15 treated primary human NK cells; format: cell-based; conditions: 2 h with IL-15, 10 μM
Experimental: Patient-derived human NK cells (a) or NK lymphoma cell lines (b) SNK-10, (c) NKL and NK6, (d) NK-92 were washed free of cytokine and rested for 4 h (a) or 16 h (b-d) prior to treatment with IL-15 for the indicated times. In some instances, cells were incubated with the proteasomal inhibitor MG132 (10 μM). Cells were lysed and analysed by immunoblotting with antibodies to the indicated phosphorylated (p) and total proteins.

LWT1 melanoma cells = test: LWT1 experimental lung metastasis; format: in vivo, mouse; conditions: Cish−/− mice, 7.5×10^5 cells i.v., day 14
Experimental: Mice were monitored for tumor development and were euthanized at the point of abdominal swelling and discomfort. Improved survival between groups was assessed by the Log-rank Mantel-Cox test. (D) Groups of 5-15 B6.WT (Cish^+/+) or B6.Cish^-/- mice were injected i.v. with 5×10^5 RM-1 prostate carcinoma cells and treated with either cIg, anti-CD96, anti-PD-1, anti-CTLA-4 or anti-PD1/anti-CTLA-4 combination (250 μg i.p. each on days 0 and 3). (E) Groups of 8-10 B6.WT (Cish^+1 or B6.Cish^-/- mice were injected i.v. with 7.5×10^5 B16F10 melanoma cells and treated with either 250 μg cIg or anti-CD96 mAb (i.p. on days 0 and 3). (F) Groups of 5-6 B6.WT (Cish^+1 or B6.Cish^-/- mice were injected i.v. with 7.5×10^5 LWT1 melanoma cells and treated with either vehicle or PLX4720 (10 mg/kg i.p., daily from day 0 to 6). Lungs were harvested on (A, D, F) day 14 or (B, E) day 13 and macrometastases counted. Individual mice are shown by each symbol and the results are plotted as mean±SEM. Statistically significant differences as indicated were determined by one-way ANOVA with Tukey post-test (for multiple comparisons) (*: […]; **: p<0.01; ***: p<0.001; ****: p<0.0001). […] Lungs were harvested on day 14 and macrometastases counted. […] Lungs were harvested on day 14 and either fixed in Bouin's solution and B16F10 metastases counted^44 or analysed for NK cell expansion by flow cytometry. […]

CIS = target: T1, CIS (Homo sapiens, UniProt Q9NSE2, DEL174-202); test: Kinase inhibition assay with competitor of CIS-SH2 binding; format: biochemical; conditions: for Effect on CIS-mediated inhibition of JAK1 JH1: CIS-SH2-BC, excess JAK1-Y1034 phosphopeptide as competitor
T1 construct: fragment: residues 66-258 with a deletion of; GST (N); made in house; host or cells: E. coli BL21(DE3)
Experimental: (a) Cultured NK cells from wild-type and Cish^−/− mice were lysed, mRNA purified and analysed by RNAseq. Mean RPKM values for duplicate samples (left panel). JAK1 mRNA levels were analysed by Q-PCR (right panel). Mean±S.D., n=3. (b) 4-12% Coomassie-stained SDS-PAGE gel showing purified hCIS-SH2-BC complex, elongin B and elongin C. (c) Isothermal calorimetry (ITC) was used to measure the affinity of hCIS-SH2-BC binding to phosphopeptides corresponding to tyrosines within the JAK1/3 kinase domain activation loops and IL-2Rβ and γ cytoplasmic domains. […] were titrated into a 30 μM solution of the GST-CIS-SH2-BC ternary complex. ITC titration curves and tabular view of some results (inset) showing mean±S.D. from two independent experiments. N.D.=Not detectable, p=phosphorylated. The titration curves all fitted well to a single-site model. (d) Cultured wild-type NK cells were washed and starved of IL-15 for 4 h, with and without addition of the proteasomal inhibitor, MG132. Cells were then stimulated with 50 ng ml^−1 IL-15 for the indicated times, prior to cell lysis and Western blotting with antibodies to the indicated proteins. (e) Kinase inhibition assays were performed with the kinase domain (JH1) of JAK1 in the presence of CIS-SH2-BC with and without excess JAK1-Y1034 phosphopeptide as a competitor. […] Data were normalised to no-CIS controls.
(c) Alternatively, 50 μM JAK1-Y1034 or JAK3-Y980,Y981 phosphopeptides were used as competitor. Data were normalised to no-CIS controls. All CIS constructs contained the SOCS box and were expressed and purified as a trimeric complex consisting of CIS, elongin B and elongin C.
Kinase inhibition assays were performed essentially as described (Babon et al., 2012). Briefly, 130 μM STAT5b peptide (SEQ ID NO:18 […]) was incubated with 5 nM JAK1 at 25° C. for 30-60 min in 20 mM Tris pH 8.0, 100 mM NaCl, 5 mM 2-mercaptoethanol, 0.2 mg ml^−1 bovine serum albumin, 2 mM MgCl2, 100 μM ATP and 1 mCi γ-[32P]ATP. Recombinant CIS-SH2-BC was present at concentrations ranging from 0-30 μM. After incubation, the reaction was spotted onto P81 phosphocellulose paper and quenched in 5% H3PO4. The paper was washed (4×200 ml, 15 min) with 5% H3PO4 and exposed to a phosphorimager plate (Fuji). Quantitation was performed using Fuji software and IC50 curves calculated using Graphpad Prism.

[2] = system: advanced malignant melanoma; conditions: patients; cited from earlier work
[3] = target: T2, JAK3 phosphopeptide (JAK3-Y980,Y981) (Homo sapiens, UniProt P52333); test: ITC, CIS constructs binding to JAK3 phosphopeptide; conditions: CIS constructs with elongins B and C
T2 construct: purchased Genscript
Experimental: 300 μM phosphopeptides were titrated into a 30 μM solution of the GST-CIS-SH2-BC ternary complex. ITC titration curves are shown. The titration curves all fitted well to a single-site model.
Isothermal calorimetric titrations were performed with a Microcal ITC200 (GE Healthcare). Phosphopeptides were obtained from Genscript. An optimised GST-CIS protein construct was prepared in which the internal PEST region ([…]) was deleted. The resulting ternary GST-CIS-SH2-SB complexes were dialysed against buffer (20 mM Tris pH 8.0, 100 mM NaCl, 2 mM 2-mercaptoethanol). Experiments were performed at 298 K unless stated otherwise. Typically, 12×3.15 μl injections of 300 μM phosphopeptides were titrated into a 30 μM solution of the GST-CIS-SH2-SB ternary complex. The heat of dilution of GST-CIS-SH2-BC was subtracted from the raw data of the binding experiment. Data were analysed using the evaluation software, Microcal Origin version 5.0. The binding curve fitted a single-site binding mode and all KD values were determined from duplicate experiments.

Compound: CC(C)C[C@@H](C=O)NC(=O)[C@H](CC(C)C)NC(=O)[C@H](CC(C)C)NC(=O)OCc1ccccc1 [MG132] (Cbz-Leu-Leu-Leu-aldehyde)
- Effect on CIS-mediated regulation of JAK1 phosphorylation [1]: reduced CIS-mediated regulation of JAK1 phosphorylation
- Phosphorylation of endogenous JAK1 (wild-type NK cells): increase in phosphorylation of endogenous JAK1
- JAK1 phosphorylation (primary human NK cells): remained reduced
- Total JAK1 and CIS levels (primary human NK cells): increase total JAK1 and CIS levels

Compound: CCCS(=O)(=O)Nc1ccc(F)c(C(=O)c2c[nH]c3ncc(Cl)cc23)c1F [PLX4720]
- LWT1 lung metastasis (LWT1 melanoma cells): further reduced

Compound: O=P(O)(O)Oc1ccccc1 [phenyl phosphate, reference compound]
- Effect on CIS inhibition of JAK1 kinase activity (CIS; excess phenyl phosphate as competitor, all CIS constructs): abrogated the ability of all CIS constructs to inhibit JAK1 kinase activity

Compound: Ipilimumab: antibody-based therapy that targets CTLA-4
- Tumour responses [2]: 10-12%

- Effect on CIS-mediated inhibition of JAK1 JH1 (CIS; listed as JAK1 activation loop peptide): only partial reduction of inhibition
Compound: JAK1-Y1034: phosphopeptide corresponding to a singly-phosphorylated JAK1 activation loop (Tyr1034)
- Effect on CIS inhibition of JAK1 kinase activity (CIS; 50 μM free phosphopeptide as competitor): dramatically reduced the ability of CIS to inhibit JAK1 kinase activity
- Effect on CIS-mediated inhibition of JAK1 JH1 (CIS; listed as pY1034 peptide): partially reduced CIS-mediated inhibition

- Binding affinity (ITC) to JAK3 phosphopeptide [3]: comparable affinity
Compound: full-length CIS: human full-length CIS protein expressed with elongins B and C as trimeric complex
